Results from patent publication US20220010019A1, “Targeting intraepithelial lymphocytes for treatment of metabolic syndrome” (The General Hospital Corporation, priority 2018, published 2022).

Test system: Ldlr−/− mice
Assay: Atherosclerotic lesion quantification in HCD-fed Ldlr−/− mice, Glp1r agonist treatment
Format: in vivo
Conditions: 8 weeks on HCD, 100 μg per kg per day via osmotic minipumps, vs PBS
Method: Glp1r agonist treatment. Ldlr−/− mice were treated with the Glp1r agonist exendin-4 (Abcam) at a dose of 100 μg per kg per day via osmotic minipumps (Alzet). After 8 weeks on a HCD, mice were euthanized for atherosclerotic lesion quantification.
Adipose tissue. iWAT and pWAT were excised, fixed in 10% formalin solution and paraffin-embedded. Haematoxylin and eosin staining was performed to assess overall tissue morphology. The adipocyte size distribution was determined with the NIH ImageJ program. Aortas. Aortic roots were dissected, embedded in Tissue-Tek OCT compound (Sakura Finetek) and frozen in 2-methylbutane (Fisher Scientific) cooled with dry ice. For comparisons of lesion sizes between the groups, sections with the maximum lesion area were used. To measure lesion volume, sections were collected at the first appearance of the aortic valves until lesions were no longer visible. Oil red O staining (Sigma-Aldrich) was performed to visualize lipid content and the lesion size was measured. To quantify lesion macrophage and smooth muscle cell content, immunohistochemistry was performed with anti-CD68 (BioLegend) and anti-Myh11 (Millipore) antibodies. […] To quantify collagen content, Masson trichrome staining (Sigma-Aldrich) was performed.

Substance: exendin-4
- atherosclerosis (plaque size, oil-red O-stained aortas): attenuated atherosclerosis
